Usually IC50 stands for the point on the concentration scale where inhibition reaches its midpoint.

One assay has as its target T1, S769N PfATP6 (Plasmodium falciparum, UniProt Q08853, S769N).
T1 construct: expressed in transfected cells; host or cells: Saccharomyces cerevisiae K667-derived strain
T1 sequence (Q08853 1-1228 S769N): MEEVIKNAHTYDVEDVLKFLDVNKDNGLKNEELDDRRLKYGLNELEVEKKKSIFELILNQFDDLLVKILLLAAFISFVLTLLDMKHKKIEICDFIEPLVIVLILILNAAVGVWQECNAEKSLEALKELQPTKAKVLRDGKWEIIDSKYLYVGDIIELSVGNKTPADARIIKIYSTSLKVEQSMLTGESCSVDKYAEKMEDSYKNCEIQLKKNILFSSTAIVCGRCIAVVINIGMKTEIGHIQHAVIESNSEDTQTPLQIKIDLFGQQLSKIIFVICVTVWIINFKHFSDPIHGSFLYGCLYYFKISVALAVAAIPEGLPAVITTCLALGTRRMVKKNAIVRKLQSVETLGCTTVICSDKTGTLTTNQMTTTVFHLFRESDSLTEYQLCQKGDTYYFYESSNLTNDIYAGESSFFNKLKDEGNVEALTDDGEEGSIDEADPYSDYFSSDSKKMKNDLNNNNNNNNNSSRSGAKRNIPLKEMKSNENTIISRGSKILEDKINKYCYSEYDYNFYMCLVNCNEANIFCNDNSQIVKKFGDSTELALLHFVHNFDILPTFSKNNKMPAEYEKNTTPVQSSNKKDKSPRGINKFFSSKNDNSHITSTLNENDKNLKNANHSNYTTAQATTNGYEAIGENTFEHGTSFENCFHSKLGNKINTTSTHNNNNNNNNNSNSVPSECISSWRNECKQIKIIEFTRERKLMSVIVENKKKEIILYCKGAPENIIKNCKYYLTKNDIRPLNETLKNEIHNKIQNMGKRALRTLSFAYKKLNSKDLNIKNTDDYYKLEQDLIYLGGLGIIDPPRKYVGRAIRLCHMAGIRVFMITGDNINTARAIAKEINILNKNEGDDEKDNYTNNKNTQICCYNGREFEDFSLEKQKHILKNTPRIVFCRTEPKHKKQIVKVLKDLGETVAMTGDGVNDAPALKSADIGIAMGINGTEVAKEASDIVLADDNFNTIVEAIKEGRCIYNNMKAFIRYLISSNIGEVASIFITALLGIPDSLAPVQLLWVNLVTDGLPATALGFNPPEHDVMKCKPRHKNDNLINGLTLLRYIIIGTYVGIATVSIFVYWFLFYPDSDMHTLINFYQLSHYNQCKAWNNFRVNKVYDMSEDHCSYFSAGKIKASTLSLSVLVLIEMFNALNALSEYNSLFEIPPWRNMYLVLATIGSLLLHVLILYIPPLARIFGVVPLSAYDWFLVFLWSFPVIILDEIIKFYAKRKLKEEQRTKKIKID
Nature of the assay: Yeast whole-cell assay, PfATP6 S769N mutant. Format: cell-based. Particulars: read-out: IC50 (mean ± SD). As to the method:
Yeast transformations were performed using the method described by Gietz and Schiestl ([48]), and transformants were selected by an uracil auxotrophic marker. Transformations were confirmed by colony PCR. Both K667 and K667Δpdr5::HIS were transformed with the following plasmids: pUGpd plasmid as a vector-only control (derived from pRS316 [49]); br434 plasmid (derived from pRS316 [50]) containing the SERCA1a coding region from rabbit skeletal fast-twitch muscle (pbr434-SERCA1a); and pUGpd containing the yeast-optimized coding region of PfATP6 from Plasmodium falciparum (pUGpd-PfATP6). Site-directed mutagenesis was performed on the SERCA1a coding region to produce the mutation E255L in the protein. Mutations were also introduced into the PfATP6 coding region to produce mutations L263E, A623E, and S769N and the double mutation A623E/S769N ([13]).
The screening assay used here was developed from the protocol used by Pulcini et al. ([13]). […] The optimal calcium concentration was periodically monitored and, if necessary, adjusted using a calcium concentration range of 10 to 30 mM. […] The yeast growth was estimated from the absorbance at 620 nm in a Tecan plate reader. […] The data collected were analyzed using GraphPad Prism v9.0 (GraphPad software, San Diego, CA, U.S.A).

For a further assay, the target named is SERCA1a (Oryctolagus cuniculus, UniProt P04191). Briefly: In vitro activity assay, SERCA1a (membrane-bound). The format is biochemical, rabbit. Set-up: containing the SERCA1a coding region from rabbit skeletal fast-twitch muscle; expressed in transfected cells. The settings on record: parallel in vitro activity assay, 100 µM (Fig. S1D). As to the method: Activity assays were performed as described by Longland et al. ([55]) and LeBel et al. ([56]), except that the reaction mixtures were incubated at 30°C instead of 37°C. […] Then, 5.8 mM ATP was added and incubated for an additional 15 min at 30°C. The reaction was stopped with 0.5 mL 6.5% trichloroacetic acid (TCA) on ice, and the mixture was centrifuged at 4°C for 10 min at 16,000 × g; 0.5 mL of the supernatant was added to 1.5 mL of copper acetate buffer (0.25% copper sulfate pentahydrate, 4.6% sodium acetate trihydrate, dissolved in 2 M acetic acid [pH 4.0]) and mixed by vortex-mixing before the addition of 0.25 mL of 5% ammonium molybdate, followed by 0.25 mL METOL buffer (2% p-methyl-aminophenol sulfate, 5% sodium sulfite). Samples were incubated for 10 min, and the absorbance was measured at 870 nm in a spectrophotometer. The Pi standard was 0.4387 g/100 mL KH2PO4.
Sequence of SERCA1a (P04191 other isoform, or with tags, fused parts or gaps): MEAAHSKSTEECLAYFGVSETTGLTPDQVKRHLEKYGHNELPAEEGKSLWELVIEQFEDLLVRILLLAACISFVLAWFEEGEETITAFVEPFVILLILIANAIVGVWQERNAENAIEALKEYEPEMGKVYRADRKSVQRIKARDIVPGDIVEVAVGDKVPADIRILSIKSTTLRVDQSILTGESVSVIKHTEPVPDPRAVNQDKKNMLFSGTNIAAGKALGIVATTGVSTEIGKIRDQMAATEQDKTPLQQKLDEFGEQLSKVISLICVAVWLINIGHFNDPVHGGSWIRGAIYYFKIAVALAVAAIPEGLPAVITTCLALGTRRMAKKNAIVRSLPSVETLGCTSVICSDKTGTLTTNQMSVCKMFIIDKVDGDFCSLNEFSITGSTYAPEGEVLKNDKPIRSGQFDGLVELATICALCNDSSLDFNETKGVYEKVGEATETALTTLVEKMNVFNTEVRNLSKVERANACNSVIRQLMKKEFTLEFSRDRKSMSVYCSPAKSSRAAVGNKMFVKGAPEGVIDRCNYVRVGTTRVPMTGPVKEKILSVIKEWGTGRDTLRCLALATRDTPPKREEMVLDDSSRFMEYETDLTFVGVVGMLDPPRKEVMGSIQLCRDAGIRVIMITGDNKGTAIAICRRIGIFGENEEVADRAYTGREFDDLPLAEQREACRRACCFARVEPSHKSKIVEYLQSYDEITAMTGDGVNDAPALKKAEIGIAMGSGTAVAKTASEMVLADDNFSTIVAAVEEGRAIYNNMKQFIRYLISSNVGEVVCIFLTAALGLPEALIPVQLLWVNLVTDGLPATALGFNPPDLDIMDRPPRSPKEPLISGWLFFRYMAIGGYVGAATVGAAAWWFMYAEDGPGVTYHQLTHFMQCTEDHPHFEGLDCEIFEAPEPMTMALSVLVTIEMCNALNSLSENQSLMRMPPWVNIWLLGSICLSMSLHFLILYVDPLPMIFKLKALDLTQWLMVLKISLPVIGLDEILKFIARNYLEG

`CC(=O)C1=C(O)[C@@H]2[C@H]3c4c[nH]c5cccc(c45)C[C@H]3C(C)(C)N2C1=O` [CPA, cyclopiazonic acid]: the IC50 on S769N PfATP6 was determined as 6.49 µM. The “inhibition of purified SERCA1a activity” value at SERCA1a was “apparent inhibition”.

The record behind these values is publication PMC9112895, “Selective Inhibition of Plasmodium falciparum ATPase 6 by Artemisinins and Identification of New Classes of Inhibitors after Expression in Yeast” (Antimicrobial Agents and Chemotherapy, 2022).
